Values after ≈ are worked out from the molar mass of the structure shown. Bridge positions count the residues as written; N and C are the ends. Square brackets hold non-standard residues; d marks the D form. Peptide text beside a SMILES is read from it. * marks the point of attachment. dNMeF = CN[C@H](Cc1ccccc1)C(=O)O; X2 = O=C(CCCCCN1CNC(=S)NC1)*; X3 = O=C(CCCN1CNC(=S)NC1)*; X4 = O=C(CN1CNC(=S)NC1)*; X1 = NCC(CN)OC(=O)*
Legend:
S. aureus ATCC 25923 = format: cell-based, Staphylococcus aureus
Description: (§1) Bacteria were grown on Mueller Hinton broth (oxoid). All incubations were at 37° C. Dilutions were carried out using Mueller Hinton. […] This process was repeated up to well 11. […] This was repeated three times. […] Results are tabulated in the Examples.

[1] = test system: human lung epithelial cell line A549; assay: Cytotoxicity in A549 cells (MTS assay, high content imaging); settings: A549; 24 h
Description: (§2) It was important to evaluate the cytotoxicity of Compound 26 on mammalian cells prior to in vivo studies. The cytotoxicity of Compound 26 in human lung epithelial cell line A549 and primary dermal fibroblasts (hDFs) was determined. Both of these cell culture models are already established for evaluation of cytotoxicity of antimicrobial peptides.
(§3) The stock solution of Compound 26 (500 μg/ml) was prepared fresh by directly dissolving Compound 26 in cell culture medium and used. Cells were treated with dimethyl sulfoxide (DMSO, 0.1% v/v) or nocodazole (5 μg/ml dissolved in DMSO) as controls. At the end of the treatment period, metabolic activities of cells were quantified by MTS-based cell viability assay. […] After 24 h treatment with Compound 26, A549 cells (c) and hDFs (d) were fixed, fluorescently stained with rhodamine-phalloidin (red), alexa fluor 488 conjugated anti-α-tubulin (green) and Hoechst 33342 (blue) and imaged using IN Cell Analyzer 2200 automated microscope. Representative images of cells treated with Compound 26 (62.5 μg/ml for 24 h) or nocodazole (10 μg/ml, toxicity control) are shown in FIG. 2 c,d.

[2] = test system: human primary dermal fibroblasts (hDFs); assay: Cytotoxicity in primary dermal fibroblasts (MTS assay, high content imaging); settings: hDFs; 24 h
Description: as §2, §3

MRSA ATCC 33591 = settings: for MIC (MRSA*): ATCC 33591
Procedure, shortened: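 Twofold broth microdilution in Mueller Hinton from a 512 μg/ml starting well, peptides dissolved in DMSO. Plates incubated 24 hours at 37° C, in triplicate. MIC read as lowest concentration without visible growth.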

Mycobacterium smegmatis = format: cell-based
Description: as §1

MRSA ATCC 700699 = assay: microbe, parasite or virus in culture; settings: ATCC 700699
Description: (§4) For MIC testing all peptides were dissolved in DMSO (according to the method of L. L. Ling, et al., Nature 2015, 517, 455-459). Bacteria were grown on Mueller Hinton broth (oxoid). All incubations were at 37° C. Dilutions were carried out using Mueller Hinton. 100 μl of autoclaved Mueller Hinton broth was added to wells 2-12 on a 96-well plate. 200 μl of the peptide was added to well one at a concentration of 512 μg/ml. 100 μl of peptide in well one was taken up and pipetted into well two. The mixture was then mixed via pipetting before 100 μl was taken up and pipetted into well three. This process was repeated up to well 11. […] This was repeated three times. The 96-well plates were then incubated for 24 hours. The MIC was determined to be the lowest concentration at which there was no growth visible.

M. smegmatis ATCC 607 = assay: microbe, parasite or virus in culture; settings: ATCC 607
Description: as §4

VRE ATCC 700802 = assay: microbe, parasite or virus in culture; settings: ATCC 700802
Description: as §4

MRSA DM21455 (eye) = assay: microbe, parasite or virus in culture; settings: DM21455 (eye)
Description: as §4

MRSA DR 42412 (sputum) = assay: microbe, parasite or virus in culture; settings: DR 42412 (sputum)
Description: as §4

[3] = test system: Staphylococcus aureus ATCC 29213; assay: microbe, parasite or virus in culture; settings: ATCC 29213
Description: as §4

VRE ATCC 29212 = assay: microbe, parasite or virus in culture; settings: ATCC 29212
Description: as §4

MRSA 1003 = format: cell-based, Staphylococcus aureus
Description: as §1

VRE 1001 = format: cell-based, Enterococcus faecalis
Description: as §1

VRE 1008 = format: cell-based, Enterococcus faecalis
Description: as §1

VRE 1002 = format: cell-based, Enterococcus faecalis
Description: as §1

VRE 1004 = format: cell-based, Enterococcus faecalis
Description: as §1

[4] = test system: Staphylococcus saprophyticus ATCC 15305; format: cell-based; settings: ATCC 15305
Description: as §1

[5] = test system: Staphylococcus saprophyticus ATCC 49453; format: cell-based; settings: ATCC 49453
Description: as §1

[6] = test system: Bacillus Subtilis ATCC 6633; format: cell-based
Description: as §1

[7] = test system: Bacillus Cereus ATCC 11788; format: cell-based
Description: as §1

[8] = test system: Staphylococcus saprophyticus ATCC 49907; format: cell-based; settings: ATCC 49907
Description: as §1

SA4299 = format: cell-based; settings: Table 11
Description: as §1

[9] = test system: Staphylococcus saprophyticus ATCC BAA 750; format: cell-based; settings: ATCC BAA 750
Description: as §1

SE12228 = format: cell-based
Description: as §1

CC[C@@H](C)[C@@H](NC(=O)[C@@H](CCC(N)=O)NC(=O)[C@H](CO)NC(=O)[C@@H](NC(=O)[C@@H](Cc1ccccc1)NC)[C@@H](C)CC)C(=O)N[C@H](C(=O)N[C@@H](CO)C(=O)N[C@H]1C(=O)N[C@@H](C)C(=O)N[C@@H](CCCCNC(=O)CN2CNC(=S)NC2)C(=O)N[C@@H]([C@@H](C)CC)C(=O)O[C@H]1C)[C@@H](C)CC [Compound 22, Gly-thiourea-Lys10-teixobactin] (H-[dNMeF]IS[dQ][dI]IS[dT]AK(X4)I; ester 8-C)
MIC against S. aureus ATCC 25923 (S. aureus ATCC 25923): 2 µg/mL (≈ 1.46 µM)

COC(=O)Nc1nc2ccc(C(=O)c3cccs3)cc2[nH]1 [nocodazole, reference compound]
cell morphology, high content images [1]: substantial loss of adhered cells
cell morphology, high content images [2]: substantial loss of adhered cells

CC[C@@H](C)[C@@H](NC(=O)[C@@H](CCC(N)=O)NC(=O)[C@H](CO)NC(=O)[C@@H](NC(=O)[C@@H](Cc1ccccc1)NC)[C@@H](C)CC)C(=O)N[C@H](C(=O)N[C@@H](CO)C(=O)N[C@H]1C(=O)N[C@@H](C)C(=O)N[C@@H](C)C(=O)N[C@@H]([C@@H](C)CC)C(=O)O[C@H]1C)[C@@H](C)CC [Compound 14]
MIC (MRSA*) (MRSA ATCC 33591): 1 to 2 µg/mL
MIC (μg/mL) Mycobacterium smegmatis (Mycobacterium smegmatis): 2 µg/mL (≈ 1.73 µM)
MBC (MRSA ATCC 700699): 16 µg/mL (≈ 13.8 µM)
MIC (MRSA ATCC 700699): 4 µg/mL (≈ 3.45 µM)
MIC (M. smegmatis ATCC 607): 1 to 2 µg/mL
MIC (VRE ATCC 700802): 4 µg/mL (≈ 3.45 µM)
MBC (MRSA DM21455 (eye)): 2 µg/mL (≈ 1.73 µM)
MIC (MRSA DM21455 (eye)): 1 µg/mL (≈ 0.863 µM)
MBC (MRSA DR 42412 (sputum)): 4 µg/mL (≈ 3.45 µM)
MIC (MRSA DR 42412 (sputum)): 1 µg/mL (≈ 0.863 µM)
MBC [3]: 2 µg/mL (≈ 1.73 µM)
MIC [3]: 1 µg/mL (≈ 0.863 µM)
MIC (VRE ATCC 29212): 4 µg/mL (≈ 3.45 µM)

CC[C@@H](C)[C@@H](NC(=O)[C@@H](CCC(N)=O)NC(=O)[C@H](CO)NC(=O)[C@@H](NC(=O)[C@@H](Cc1ccccc1)NC)[C@@H](C)CC)C(=O)N[C@H](C(=O)N[C@@H](CO)C(=O)N[C@H]1C(=O)N[C@@H](C)C(=O)N[C@@H](CCCCNC(=O)CCCCCN2CNC(=S)NC2)C(=O)N[C@@H]([C@@H](C)CC)C(=O)O[C@H]1C)[C@@H](C)CC [Compound 24, Ahx-thiourea-Lys10-teixobactin] (H-[dNMeF]IS[dQ][dI]IS[dT]AK(X2)I; ester 8-C)
MIC against S. aureus ATCC 25923 (S. aureus ATCC 25923): 2 µg/mL (≈ 1.4 µM)

CC[C@@H](C)[C@@H](NC(=O)[C@@H](CCCNC(=N)N)NC(=O)[C@H](CCCNC(=N)N)NC(=O)[C@@H](NC(=O)[C@@H](Cc1ccccc1)NC)[C@@H](C)CC)C(=O)N[C@H](C(=O)N[C@@H](CO)C(=O)N[C@H]1C(=O)N[C@@H](C)C(=O)N[C@@H](CC(C)C)C(=O)N[C@@H]([C@@H](C)CC)C(=O)O[C@H]1C)[C@@H](C)CC [Compound 28, Arg3-D-Arg4-Leu10-teixobactin] (H-[dNMeF]IR[dR][dI]IS[dT]ALI; ester 8-C)
MIC (MRSA 1003): 1 µg/mL (≈ 0.77 µM)
MIC (VRE 1001): 1 µg/mL (≈ 0.77 µM)
MIC (VRE 1008): 0.5 µg/mL (≈ 0.385 µM)
MIC (VRE 1002): 1 µg/mL (≈ 0.77 µM)
MIC (VRE 1004): 0.5 µg/mL (≈ 0.385 µM)
MIC against MRSA ATCC 33591 (MRSA ATCC 33591): 0.25 µg/mL (≈ 0.193 µM)
MIC [4]: <0.0625 µg/mL
MIC [5]: <0.0625 µg/mL
MIC [6]: <0.0625 µg/mL
MIC [7]: 1 µg/mL (≈ 0.77 µM)
MIC [8]: <0.0625 µg/mL
MIC (SA4299): 0.25 µg/mL (≈ 0.193 µM)
MIC [9]: <0.0625 µg/mL
MIC (SE12228): <0.0625 µg/mL
MIC (MRSA ATCC 700699): 0.5 µg/mL (≈ 0.385 µM)
MIC (VRE ATCC 700802): 2 µg/mL (≈ 1.54 µM)
MIC (MRSA DM21455 (eye)): 0.5 µg/mL (≈ 0.385 µM)
MIC (MRSA DR 42412 (sputum)): 0.25 µg/mL (≈ 0.193 µM)
MIC [3]: 0.25 µg/mL (≈ 0.193 µM)
MIC (VRE ATCC 29212): 1 µg/mL (≈ 0.77 µM)

CC[C@@H](C)[C@@H](NC(=O)[C@@H](CCCNC(=N)N)NC(=O)[C@H](CO)NC(=O)[C@@H](NC(=O)[C@@H](Cc1ccccc1)NC)[C@@H](C)CC)C(=O)N[C@H](C(=O)N[C@@H](CO)C(=O)N[C@H]1C(=O)N[C@@H](CCCNC(=N)N)C(=O)N[C@@H](CC(C)C)C(=O)N[C@@H]([C@@H](C)CC)C(=O)O[C@H]1C)[C@@H](C)CC [Compound 30, D-Arg4-Arg9-Leu10-teixobactin] (H-[dNMeF]IS[dR][dI]IS[dT]RLI; ester 8-C)
MIC (MRSA 1003): 0.5 µg/mL (≈ 0.38 µM)
MIC (VRE 1001): 1 µg/mL (≈ 0.761 µM)
MIC (VRE 1008): 1 µg/mL (≈ 0.761 µM)
MIC (VRE 1002): 1 µg/mL (≈ 0.761 µM)
MIC (VRE 1004): 1 µg/mL (≈ 0.761 µM)
MIC against MRSA ATCC 33591 (MRSA ATCC 33591): 1 µg/mL (≈ 0.761 µM)
MIC [4]: <0.0625 µg/mL
MIC [5]: <0.0625 µg/mL
MIC [6]: <0.0625 µg/mL
MIC [7]: 1 µg/mL (≈ 0.761 µM)
MIC [8]: <0.0625 µg/mL
MIC (SA4299): 0.5 µg/mL (≈ 0.38 µM)
MIC [9]: <0.0625 µg/mL
MIC (SE12228): <0.0625 µg/mL
MIC (MRSA ATCC 700699): 1 µg/mL (≈ 0.761 µM)
MIC (VRE ATCC 700802): 1 µg/mL (≈ 0.761 µM)
MIC (MRSA DM21455 (eye)): 1 µg/mL (≈ 0.761 µM)
MIC (MRSA DR 42412 (sputum)): 1 µg/mL (≈ 0.761 µM)
MIC [3]: 1 µg/mL (≈ 0.761 µM)
MIC (VRE ATCC 29212): 1 µg/mL (≈ 0.761 µM)

CC[C@@H](C)[C@@H](NC(=O)[C@@H](CCC(N)=O)NC(=O)[C@H](CO)NC(=O)[C@@H](NC(=O)[C@@H](Cc1ccccc1)NC)[C@@H](C)CC)C(=O)N[C@H](C(=O)N[C@@H](CO)C(=O)N[C@H]1C(=O)N[C@@H](C)C(=O)N[C@@H](CCCCNC(=O)OC(CN)CN)C(=O)N[C@@H]([C@@H](C)CC)C(=O)O[C@H]1C)[C@@H](C)CC [Compound 21, Diamino10-Teixobactin] (H-[dNMeF]IS[dQ][dI]IS[dT]AK(X1)I; ester 8-C)
MIC (MRSA*) (MRSA ATCC 33591): 0.25 µg/mL (≈ 0.188 µM)
MIC (μg/mL) Mycobacterium smegmatis (Mycobacterium smegmatis): 0.5 µg/mL (≈ 0.375 µM)

CC[C@@H](C)[C@@H](NC(=O)[C@@H](CCC(N)=O)NC(=O)[C@H](CO)NC(=O)[C@@H](NC(=O)[C@@H](Cc1ccccc1)NC)[C@@H](C)CC)C(=O)N[C@H](C(=O)N[C@@H](CO)C(=O)N[C@H]1C(=O)N[C@@H](C)C(=O)N[C@@H](CCCCNC(=O)CCCN2CNC(=S)NC2)C(=O)N[C@@H]([C@@H](C)CC)C(=O)O[C@H]1C)[C@@H](C)CC [Compound 23, GABA-thiourea-Lys10-teixobactin] (H-[dNMeF]IS[dQ][dI]IS[dT]AK(X3)I; ester 8-C)
MIC against S. aureus ATCC 25923 (S. aureus ATCC 25923): 2 µg/mL (≈ 1.43 µM)

— US20240327463A1, “ANTIBACTERIAL PRODUCTS” (priority 2017, published 2024)
